# Measured values taken from patent publication US20050209157A1, “Short bioactive peptides and methods for their use” (priority 2001, published 2005).
# Like-named read-outs stand apart in the source and are kept apart here. Non-standard residues stand in square brackets, D forms with d. Residues, ends and D or L forms follow the SMILES beside them. No end group written: not given here.
# Key:
# [1] = system: WI38; conditions: MTT, 24 hours with peptide; normal fibroblast line
# [2] = system: S. aureus (MRSA); format: cell-based, Staphylococcus aureus; conditions: mean of three; 16 to 20 hours at 35° C.
# [3] = system: S. pneumoniae C718; assay: Antimicrobial assays II, NCCLS broth microdilution MIC; format: cell-based, Streptococcus pneumoniae; conditions: mean of three
# [4] = system: H1299; assay: Anti-cancer assay, MTT, LD50; format: cell-based; conditions: 24 hours with peptide, lung large cell carcinoma
# Description: (§1) Numbers are LD50 values (μg/mL).
# [5] = system: HeLaS3; assay: Anti-cancer assay, MTT, LD50; format: cell-based; conditions: 24 hours with peptide, cervical carcinoma
# Description: as §1
# [6] = system: MCF7; assay: Anti-cancer assay, MTT, LD50; format: cell-based; conditions: MCF7 breast adenocarcinoma line, MTT, 24 hours with peptide
# Description: as §1
# [7] = system: BMKC; assay: Anti-cancer assay, MTT, LD50; format: cell-based; conditions: BMKC cloned melanoma line, 24 hours with peptide
# Description: as §1
# [8] = system: PC3; assay: Anti-cancer assay, MTT, LD50; format: cell-based; conditions: 24 hours with peptide, prostate adenocarcinoma
# Description: as §1
# [9] = system: SW480; assay: Anti-cancer assay, MTT, LD50; format: cell-based; conditions: SW480 colon adenocarcinoma line, 24 hours with peptide
# Description: as §1
# [10] = system: Staphylococcus aureus ATCC 6538; assay: Antimicrobial assay I, MIC by OD measurement; format: cell-based; conditions: 37° C. for 24 hours, absorbance 620 nm
# [11] = system: Pseudomonas aeruginosa ATCC 9027; assay: Antimicrobial assay I, MIC by OD measurement; format: cell-based; conditions: 37° C. for 24 hours, absorbance 620 nm
# [12] = system: S. epidermidis C621; format: cell-based, Staphylococcus epidermidis; conditions: mean of three; 16 to 20 hours at 35° C.
# [13] = system: S. pyogenes M76; assay: Antimicrobial assays II, NCCLS broth microdilution MIC; format: cell-based, Streptococcus pyogenes; conditions: mean of three; 16 to 20 hours at 35° C.
# [14] = system: P. aeruginosa; format: cell-based, Pseudomonas aeruginosa; conditions: P. aeruginosa H744; MIC of nalidixic acid with peptide at ¼ MIC
# Outline: (§2)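 Synergy against efflux-mutant strains: two-fold dilutions of nalidixic acid or chloramphenicol tested with peptide held at ¼ of its MIC.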
# [15] = system: P. aeruginosa H374; format: cell-based, Pseudomonas aeruginosa; conditions: for MIC Cm-comb.: MIC of chloramphenicol with peptide at ¼ MIC; for MIC Nal-comb.: MIC of nalidixic acid with peptide at ¼ MIC; for FIC Index: 0.5 or less = synergy
# Outline: as §2
# [16] = system: P. aeruginosa H774; format: cell-based, Pseudomonas aeruginosa; conditions: P. aeruginosa H744; nalidixic acid + peptide at ¼ MIC; 0.5 or less = synergy
# Outline: as §2
# [17] = system: P. acne ATCC 6919; assay: Antimicrobial assays II, NCCLS broth microdilution MIC; format: cell-based, Propionibacterium acnes; conditions: mean of three, in µg/mL
# [18] = system: S. pyogenes ATCC19615; assay: as above; format: cell-based, Streptococcus pyogenes; conditions: mean of three, in µg/mL
# [19] = in vitro; format: cell-based, human; conditions: human, human red blood cells, pH 7, hemolytic assay, concentration at 50% hemolysis, 1 hour at 37° C.; read-out: LD50
# [20] = system: yeast (Saccharomyces cerevisiae); assay: Antimicrobial assay I, yeast assay in RPMI 1640; format: cell-based; conditions: RPMI 1640 media
# [21] = system: S. pneumoniae C719; assay: Antimicrobial assays II, NCCLS broth microdilution MIC; format: cell-based, Streptococcus pneumoniae; conditions: mean of three, in µg/mL
# [22] = in vitro; conditions: human, WI38 normal lung fibroblast cells, LD50 WI38, WI38 normal lung fibroblast line, MTT, 24 hours with peptide
# [23] = chloramphenicol + peptide at ¼ MIC
# [24] = nalidixic acid + peptide at ¼ MIC, FIC=0.25+MIC comb/MIC alone
Compound,WI38 LD50 [1] [µg/mL],S. aureus (MRSA) MIC [2] [µg/mL],S. pneumoniae MIC [3] [µg/mL],H1299 LD50 [4] [µg/mL],LD50 MCF7 [6] [µg/mL],LD50 BMKC [7] [µg/mL],PC3 LD50 [8] [µg/mL],LD50 SW480 [9] [µg/mL],staph6538 (MIC) [10],paerug9027 (MIC) [11],S. epidermidis C621 MIC [12] [µg/mL],S. pyogenes M76 MIC [13] [µg/mL],MIC Nal-comb. [14] [µg/mL],MIC Cm-comb. [15] [µg/mL],MIC Nal-comb. [15] [µg/mL],"FIC Index [15, 23]","FIC Index [15, 24]",FIC Index [16],P. acne MIC [17],S. pyogenes MIC [18],other results
FALALKKALKALKKAL-NH2 [P34],40,16,8,24,21,53,9,35,5 µg/mL,50 µg/mL,8,4,624,16,2500,1.25,0.75,1.25,8,4,HeLaS3 LD50 [5]: 62 µg/mL; HC50 at 1 h [19]: 200 µg/mL; yeast (MIC or MFC) [20]: 25 µg/mL; S. pneumoniae MIC [21]: 8; CC50 at 24 h [22]: 40 µg/mL
KWKLFKKKTKLFKKFAKKLAKKL-NH2 [P73],160,16,> 128,115,150,360,97,70,50 µg/mL,15 µg/mL,4,16,624,8,2500,0.75,0.75,1.25,4,16,HeLaS3 LD50 [5]: 270 µg/mL; HC50 at 1 h [19]: 90 µg/mL; yeast (MIC or MFC) [20]: 100 µg/mL; S. pneumoniae MIC [21]: 64; CC50 at 24 h [22]: 160 µg/mL
"FAKFLAKFLKKAL-NH2 [P111, FAKFLAKFLKKAL-NH2]",24,8,16,8,35,26,11,27,5 µg/mL,100 µg/mL,4,4,624,16,2500,1.25,0.75,1.25,4,2,HeLaS3 LD50 [5]: 7 µg/mL; HC50 at 1 h [19]: 60 µg/mL; yeast (MIC or MFC) [20]: 200 µg/mL; S. pneumoniae MIC [21]: 4; CC50 at 24 h [22]: 24 µg/mL
"CC(C)C[C@H](NC(=O)[C@H](C)NC(=O)[C@H](CCCCN)NC(=O)[C@H](CCCCN)NC(=O)[C@H](CC(C)C)NC(=O)[C@H](C)NC(=O)[C@H](CCCCN)NC(=O)[C@H](CCCCN)NC(=O)[C@H](CC(C)C)NC(=O)[C@@H](CCCCN)NC(=O)[C@@H](CCCCN)NC(=O)[C@H](CC(C)C)NC(=O)[C@H](C)NC(=O)[C@H](CCCCN)NC(=O)[C@H](CCCCN)NC(=O)[C@H](CC(C)C)NC(=O)[C@H](C)NC(=O)[C@H](CCCCN)NC(=O)[C@H](CC(C)C)NC(=O)[C@H](C)NC(=O)[C@H](CC(C)C)NC(=O)[C@H](C)NC(=O)[C@@H](N)Cc1ccccc1)C(=O)O [P37, FALALKALKKAL-(D)-K-(D)-KLKKALKKAL-COOH] (H-FALALKALKKAL[dK][dK]LKKALKKAL-OH; N-terminus assumed)",80,8,64,150,14,150,64,57,5 µg/mL,100 µg/mL,4,8,624,4,2500,0.5,0.75,1.25,4,8,HC50 at 1 h [19]: 30 µg/mL; yeast (MIC or MFC) [20]: 50 µg/mL; S. pneumoniae MIC [21]: 16; CC50 at 24 h [22]: 80 µg/mL
FAKKLAKKLL-NH2 [P59],77,8,16,180,31,155,81,42,> (> indicates greater than 200 μg/mL),> (> indicates greater than 200 μg/mL),8,2,624,8,2500,0.75,0.75,1.25,2,2,HC50 at 1 h [19]: 1000 µg/mL; yeast (MIC or MFC) [20]: > (> indicates greater than 200 μg/mL); S. pneumoniae MIC [21]: 4; CC50 at 24 h [22]: 77 µg/mL
